How the values were obtained:
SHHF rats = experiment: Long-term diet study in SHHF rats (fifteen to twenty-one months of age); format: in vivo, rat
Experimental: Experiments were performed to determine whether the amount of (18:2)4CL in vivo may be altered with diet and, if so, whether this capability may be used to influence the time course of heart failure in SHHF rats. The two diets studied were a linoleic acid-rich safflower oil diet and a diet supplemented with lard.
Lean male SHHF rats aged eight weeks and fifteen months were used in the studies. […] The progression toward heart failure in SHHF rats shares a wide variety of marked similarities to the progression toward heart failure in humans.
To study the normal timecourse of HF, male SHHF rats were placed on special diets for six months, from fifteen to twenty-one months of age. This timecourse was chosen, because fifteen months is the time when SHHF rats start to progress from hypertension to HF. By twenty-one months most controls should be showing signs of overt HF.

PPARβ = experiment: PPAR binding in LVs of twenty month old SHHF rats on linoleic acid supplement; format: in vivo, rat; conditions: FIG. 13
Description: Peroxisome Proliferator-Activated Receptors: Peroxisome proliferator-activated receptors (PPARs) are a family of nuclear transcription factors comprised of PPARα, PPARγ, and PPARβ (also called PPARδ). […] Alteration in PPAR isoform levels results in CL changes, and it is well established that the natural activator for PPARs are polyunsaturated fatty acids, such as 18:2. […] PPARβ is currently believed to be the most pharmacologically promising of the three isoforms. Linoleic acid supplementation results in an increase in PPARβ binding, FIG. 13.

[1] = tested on: fibroblasts from Barth Syndrome patients; conditions: fibroblasts supplemented with 18:2; cited from earlier work
TAB rats = experiment: SC-26196 fed in chow to TAB rats with induced heart failure; format: in vivo, rat
Description: Δ5 Desaturase and Δ6 Desaturase: Δ6 desaturase mRNA increases with heart failure in SHHF rats (FIG. 11). The Δ5 desaturase and Δ6 desaturase inhibitor SC-26196 (Pfizer) was fed to TAB rats in which heart failure was induced three weeks after TAB. The rats were allowed to reach a pre-failure state for a week and then the drug, SC-26196, was given in the chow for two weeks. […] Use of the Δ5 desaturase and Δ6 desaturase inhibitor, SC-26196, improved the heart function of SHHF rats and caused an increase in linoleic acid and a decrease in arachidonic acid levels in the heart.
Rapid induction of HF was studied using eight week old male SHHF rats maintained on a control (Purina 5001) diet since weaning from their mothers. Rapid HF is induced by transaortic banding (TAB) accompanied by a high salt diet for four weeks (TAB/HS). Rats are used for experiments four weeks following TAB/HS treatment.

SMILES	left ventricular dimension (SHHF rats; 18:2 supplementation)	systolic function (SHHF rats; 18:2 supplementation)	survivability / survival of SHHF rats (SHHF rats; compared to lard supplemented or standard chow diets, FIG. 7)	PPARβ binding (PPARβ)	amount of (18:2)4CL [1]	arachidonic acid levels in the heart (TAB rats; SHHF rats)	linoleic acid levels in the heart (TAB rats; SHHF rats)	survivability of SHHF rats (TAB rats; given in the chow)	production of arachidonic acid from linoleic acid (TAB rats; given in the chow for two weeks)	cardiac function (fractional shortening) (TAB rats; given in the chow for two weeks, FIG. 12A)	level of (18:2)4CL (TAB rats; given in the chow for two weeks, FIG. 12B)
CCCCC/C=C\C/C=C\CCCCCCCC(=O)O [Linoleic acid, linoleic acid]	Trends for improvement	Trends for improvement	significant increase	increase	increased	–	–	–	–	–	–
N#CC(CCCN1CCN(/N=C/c2cccnc2)CC1)(c1ccccc1)c1ccccc1 [SC-26196]	–	–	–	–	–	decrease	increase	improved	effectively blocked	improved	increased

From US20080318909A1, “Use Of Linoleic Compounds Against Heart Failure” (priority 2007, published 2008)
